Reference: patent US11186618B2, “Dendritic-cell-targeted peptide, fusion peptide utilizing said peptide, and vaccine utilizing said fusion peptide” (The Research Foundation for Microbial Diseases of Osaka …, priority 2016, dated 2021)

Tests used:
[1] = tested on: NeutrAvidin-specific antibody; test: NeutrAvidin-specific antibody titer in sera of mice given biotinylated peptide/NeutrAvidin complex, ELISA (Test Example 12); assay type: in vivo, mouse; conditions: 5 μg as NeutrAvidin, base of tail Day 0 and Day 10, serum Day 17, IgG
From the text: A biotinylated peptide was synthesized by linking the N-terminus of each of FL4 identified in Test Example 1, a peptide Mut 1 (amino acid sequence: ASYKAIR (SEQ ID NO: 2)) derived from FL4 of which the 1st amino acid residue was substituted by an alanine residue, a peptide Mut 2 (amino acid sequence: VAYKAIR (SEQ ID NO: 3)) derived from FL4 of which the 2nd amino acid residue was substituted by an alanine residue, a peptide Mut 3 (amino acid sequence: VSAKAIR, SEQ ID NO: 43) derived from FL4 of which the 3rd amino acid residue was substituted by an alanine residue, and a peptide Mut 4 (amino acid sequence: VSYKAAR, SEQ ID NO: 44) derived from FL4 of which the […] amino acid residue was substituted by an alanine residue to biotin. Subsequently, a biotinylated peptide/NeutrAvidin complex was produced by mixing each of the obtained biotinylated peptides and NeutrAvidin.
50 μL of physiological saline containing 5 μg of the complex or NeutrAvidin in terms of NeutrAvidin amount was administered into the base of the tail of each 7-week old C57BL/6 mouse on Day 0 and Day 10, and blood was collected on Day 17. As a control, a test was also carried out in the case where only physiological saline was administered in the same manner Meanwhile, in these tests, five mice in each group were used.
Sera were obtained from the blood collected on Day 17 and NeutrAvidin-specific antibody titer (IgG) in the sera was measured by ELISA. In FIG. 18, “NA” refers to the case of administration of NeutrAvidin, and “NA-FL4” refers to the case of administration of the biotinylated FL4/NeutrAvidin complex. Other peptides are shown in the same display format. Further, in FIG. 18, “cont” refers to the case where physiological saline was administered.

[2] = tested on: mouse-derived dendritic cells (FL-DCs); test: Binding of phage clones to mouse-derived dendritic cells by flow cytometric analysis (Test Example 1); assay type: cell-based; conditions: phage clone displaying the peptide, 1.6×10^10 pfu/mL, 1×10^5 mouse-derived dendritic cells, flow cytometry with antibody against the phage
Protocol: Meanwhile, in the following test examples, unless otherwise indicated, as mouse-derived dendritic cells, dendritic cells (FL-DCs) that were obtained by culturing murine bone marrow cells in the presence of Flt3-L (final concentration 100 ng/ml) for 1 week to induce differentiation were used. In addition, in the following test examples, FL-DCs were analyzed in some cases separately for Plasmacytoid DCs (pDCs), CD11b positive dendritic cells (CD11b^+ DCs), and CD11b negative dendritic cells (CD11b^− DCs). Among the mouse-derived dendritic cells, pDCs is a group of CD11c positive and B220 positive cells; CD11b^+ DCs is a group of CD11c positive, B220 negative and CD11b positive cells among mouse-derived dendritic cells; CD11b^− DCs is a group of CD11c positive, B220 negative, and CD11b negative cells among mouse-derived dendritic cells.
Each of phages recovered by three panning operations was monocloned and amplified. 1×10^5 mouse-derived dendritic cells and 1.6×10^10 pfu/mL of each phage clone were mixed, and then the phage was assayed for the binding to dendritic cells by flow cytometric analysis using an antibody against the phage.
About 60 phage clones obtained were subjected to flow cytometric analysis as described above. As a result, 37 clones shown in Table 1 were identified as clones capable of binding to dendritic cells. […]

[3] = tested on: dendritic cells contained in splenocytes; test: Binding of phage clones to dendritic cells contained in splenocytes, flow cytometry (Test Example 6); assay type: cell-based, mouse; conditions: phage clone 1.6×10^10 pfu/mL, 1×10^5 splenocytes
Protocol: (§1) Specifically, 1×10^5 splenocytes collected from mice and 1.6×10^10 pfu/mL of each phage clone were mixed, and the biotinylated antibody to the phage was added. Further, streptavidin modified with a fluorescent dye was added, and the binding of the phage to splenocytes was evaluated by flow cytometric analysis.

[4] = tested on: CD4^+ T cells contained in splenocytes; test: Binding of phage clones to CD4+ T cells contained in splenocytes, flow cytometry (Test Example 6); assay type: cell-based, mouse; conditions: phage clone 1.6×10^10 pfu/mL, 1×10^5 splenocytes
Protocol: as §1

PspA-specific antibodies = test: PspA-specific antibody titer in sera of mice given fusion peptide, ELISA (Test Example 2); assay type: in vivo, mouse; conditions: C57BL/6 mice
Protocol: 50 μL of physiological saline containing 1 μg of the fusion peptide or PspA in terms of PspA amount was administered into the base of the tail of each of 7-week old C57BL/6J JmsSlc mice (hereinafter sometimes abbreviated as C57BL/6 mice) on Day 0 and Day 10, and blood was collected on Day 17. As a control, a test was also carried out in the case where only physiological saline was administered in the same manner. Further, a test was also carried out in the case where 50 μL of physiological saline containing 10 μg of CpG oligodeoxynucleotide (K3 type, product name “K3 Et-Free”, product number “CN-65003” manufactured by GeneDesign Inc.) in addition to 1 μg of the fusion peptide or PspA in terms of PspA amount was administered in the same manner Meanwhile, in these tests, five mice in each group were used.
Sera were obtained from the blood collected on Day 17 and PspA-specific antibody titers (IgG, IgG1, and IgG2a) in the sera were measured by ELISA. In FIGS. 3 to 5, “PspA WT” refers to PspA, “PspA-FL4” refers to the fusion peptide in which the N-terminus of a peptide obtained by binding three amino acid sequences of FL4 directly and tandemly was linked to the C-terminus of PspA, “PspA WT+CpG” refers to the case where PspA and CpG oligodeoxynucleotide were administered. In addition, in FIGS. 3 to 5, the same meaning applies to the same display format as “PspA-FL4” and “PspA WT+CpG”. […]

Streptococcus pneumoniae = Streptococcus pneumoniae challenge of mice immunized with fusion peptide (Test Example 3); assay type: in vivo
Protocol: The following test was carried out by using a fusion peptide (FL4-PspA, amino acid sequence: [Amino acid sequence of PspA]-[VSYKAIR; SEQ ID NO: 1]-[VSYKAIR; SEQ ID NO: 1]-[VSYKAIR; SEQ ID NO: 1]) that was prepared in Test Example 2, by linking the N-terminus of a peptide obtained by binding three amino acid sequences of FL4 directly and tandemly to the C-terminus of PspA.
Immunity induction was carried out by administering 50 μL of physiological saline containing 1 μg of FL4-PspA or PspA in terms of PspA amount into the base of the tail of each of 7-week old C57BL/6 mice on Day 0 and Day 10. Then, intranasal administration (one of the nostrils of 15 μL) of Streptococcus pneumoniae (1.7×10^9 cfu/ml: […]) was performed on Day 18, and the body weight and survival rate of each mouse after Streptococcus pneumoniae administration were determined. In addition, as a control, a test was also carried out in the case where only physiological saline was administered in the same manner without conducting immunization. Further, a test was also carried out in the case where 50 μL of physiological saline containing 10 μg of CpG oligodeoxynucleotide (K3 type, product name “K3 Et-Free”, product number “CN-65003” manufactured by GeneDesign Inc.) in addition to 1 μg of FL4-PspA or PspA in terms of PspA amount was administered in the same manner Meanwhile, in these tests, five mice in each group were used.
Meanwhile, in FIG. 6, the day on which Streptococcus pneumoniae was administered is shown as Day 0. In addition, the meanings of the abbreviations in FIG. 6 are as indicated in the column of Test Example 2 above.

EG7 cells = test: Tumor size in mice transplanted with EG7 cells (Test Example 9); assay type: in vivo, mouse; conditions: EG7 tumor bearing C57BL/6 mice, 50 μg as SL8 with 50 μg CpG oligodeoxynucleotide subcutaneously into the ears, compared with physiological saline
Protocol: In this test, whether the regression effect of cancer was observed by SL8-specific CD8^+ CTLs induced by SL8-FL4 was evaluated. In this test, EG7 cells (cancer cells expressing OVA protein in EL4 cells derived from thymoma of C57BL/6 mouse) were used as cancer cells. Specific test methods are as follows.
1 (10^6 EG7 cells were transplanted into the abdomen of 7-week old C57BL/6 mice to prepare tumor bearing mice. 50 μL of physiological saline containing 50 μg of SL8-FL4 in terms of SL8 amount and 50 μg of CpG oligodeoxynucleotide (K3 type, product name “K3 Et-Free”, product number “CN-65003” manufactured by GeneDesign Inc.) was administered subcutaneously into the ears of mice after EG7 cells were transplanted and the tumor diameter reached about 5 mm (about 5 days after transplantation). Thereafter, tumor size was measured over time while breeding the mice. In addition, similar tests were carried out with regard to the case where 50 μL of physiological saline containing 50 μg SL8 and 50 μg of CpG oligodeoxynucleotide was administered, and the case where only physiological saline was administered (control). Meanwhile, in these tests, five mice in each group were used.

[5] = tested on: antigen-specific CD8^+ CTLs; test: Tetramer assay on regional lymph nodes, CD8+ CTL inducibility (Test Example 8); assay type: in vivo, mouse; conditions: co-administered with CpG oligodeoxynucleotide, 50 μg in terms of SL8 subcutaneously into the ears Day 0, lymph nodes Day 7
Protocol: A fusion peptide (SL8-FL4) was prepared by linking the N-terminus of the peptide consisting of the amino acid sequence of FL4 to the C-terminus of SL8 (SIINFEKL; SEQ ID NO: 40) which is an MHC class I epitope peptide in chicken ovalbumin (OVA). Specifically, the amino acid sequence of the fusion peptide is [Amino acid sequence of SL8 (SIINFEKL; SEQ ID NO: 40)]-[VSYKAIR; SEQ ID NO: 1]. The production method of the fusion peptide was the same as that of PspA-FL4 except that a DNA molecule encoding SL8 was used. In addition, each of peptide-fusion bodies (SL8-F8 and SL8-FL4Scr) in which the peptide was fused with SL8 was prepared using each of FL8 and the scramble peptide of FL4 (FL4Scr, amino acid sequence: YRSIVKA, SEQ ID NO: 41) in the same manner. […]
The tetramer assay was carried out as follows. Lymphocytes were recovered from the regional lymph nodes, were stained with fluorescently labeled antibodies against CD44 and CD8 and a fluorescently labeled tetramer recognizing the SL8 peptide presented on H-2K^b, then were analyzed using a flow cytometer.

Q: “VAYKAIR (Amino acid sequence of motif sequence) [Mut 2]” was tested. Which NeutrAvidin-specific antibody production [1] did it give?
A: Its NeutrAvidin-specific antibody production is “excellent production ability”.

Q: “ASYKAIR (Amino acid sequence of motif sequence) [Mut 1]” was tested. Which NeutrAvidin-specific antibody production [1] did it give?
A: Its NeutrAvidin-specific antibody production is “excellent production ability”.

Q: “GGSKPVR (phage display; displayed peptide) [FL8]” was tested. Which “binding of phage clone to dendritic cells” value [2] did it give?
A: The value was “binding to bone marrow-derived dendritic cells was confirmed”.

Q: What about the “binding of phage clone to dendritic cells contained in splenocytes” value [3] of the same substance?
A: Its value is “bind to all dendritic cells contained in splenocytes”.

Q: What about the “binding of phage clone to CD4+ T cells contained in splenocytes” value [4] of the same substance?
A: The value was “also bound to CD4^+ T cells contained in splenocytes”.

Q: What does the source list for “[Amino acid sequence of PspA]-[VSYKAIR; SEQ ID NO: 1]-[VSYKAIR; SEQ ID NO: 1]-[VSYKAIR; SEQ ID NO: 1] [PspA-FL4]”?
A: production ability of PspA-specific antibodies (PspA-specific antibodies; 1 μg in terms of PspA into base of tail Day 0 and Day 10, serum Day 17, ELISA): remarkably improve; PspA-specific antibody titer compared with PspA and adjuvant (CpG oligodeoxynucleotide) administered at the same time (PspA-specific antibodies; fusion peptide without adjuvant, serum Day 17): remarkably higher; body weight after administration of Streptococcus pneumoniae (Streptococcus pneumoniae; C57BL/6 mice immunized Day 0 and Day 10 (1 μg as PspA), intranasal 5.1×10^7 cfu/mouse Day 18): no decrease in body weight was observed; infection protective ability (Streptococcus pneumoniae; C57BL/6 mice, Streptococcus pneumoniae intranasal challenge): strong infection protective ability; survival rate (Streptococcus pneumoniae; after 10 days from the administration of Streptococcus pneumoniae, C57BL/6 mice): 100%

Q: Which tumor regression effects (EG7 cells) does the source give for SIINFEKL [SL8, reference compound] here?
A: The tumor regression effects was “some tumor regression effects”.

Q: What about the “induction of antigen-specific CD8+ CTLs (tetramer assay, regional lymph nodes)” value [5] of the same substance?
A: The value was “could not be induced”.

Q: Which NeutrAvidin-specific antibody production [1] does the source give for VSYKAAR (Mut 4 peptide) here?
A: The NeutrAvidin-specific antibody production was “an excellent antibody-producing ability is recognized unlike the case where each of the amino acid sequences of Mut 3 and Mut 4 is contained”.

Q: For VSAKAIR (Mut3 peptide) [Mut 3], which NeutrAvidin-specific antibody production [1] is on record?
A: Its NeutrAvidin-specific antibody production is “an excellent antibody-producing ability is recognized unlike the case where each of the amino acid sequences of Mut 3 and Mut 4 is contained”.
